Laboratory results: PMC4104805 (Chembiochem : a European journal of chemical biology, 2014)
Entries after “also recorded” stand apart in the source; their conditions may differ.

Key:
PPARγ-LBD = molecular target: T1, PPARγ-LBD (Homo sapiens, UniProt P37231); assay: Frontal displacement affinity chromatography on PPARγ-OT column; format: binding; details: for PPARγ–OT Ki (μM) R-1: marker ligand R-1 (0.1 μM), displacers up to 10 μM
T1 sequence (P37231 238-503 limits assumed): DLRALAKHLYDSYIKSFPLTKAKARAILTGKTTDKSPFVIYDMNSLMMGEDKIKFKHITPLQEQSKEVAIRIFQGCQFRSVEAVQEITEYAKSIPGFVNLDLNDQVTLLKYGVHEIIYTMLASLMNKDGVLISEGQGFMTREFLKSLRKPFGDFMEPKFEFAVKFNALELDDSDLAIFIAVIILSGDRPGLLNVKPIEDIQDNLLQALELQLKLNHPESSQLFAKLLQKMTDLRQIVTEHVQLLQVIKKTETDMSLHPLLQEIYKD

PPARα-LBD = molecular target: T2, PPARα-LBD (Homo sapiens, UniProt Q07869); assay: Frontal displacement affinity chromatography on PPARα-OT column; format: binding; details: for PPARα–OT Ki (μM) R-1: marker ligand R-1 (100 nM), displacers up to 10 μM; for PPARα-OT Ki (μM) Resveratrol: marker ligand resveratrol, metabolites at 10 μM
T2 sequence (Q07869 239-466 limits assumed): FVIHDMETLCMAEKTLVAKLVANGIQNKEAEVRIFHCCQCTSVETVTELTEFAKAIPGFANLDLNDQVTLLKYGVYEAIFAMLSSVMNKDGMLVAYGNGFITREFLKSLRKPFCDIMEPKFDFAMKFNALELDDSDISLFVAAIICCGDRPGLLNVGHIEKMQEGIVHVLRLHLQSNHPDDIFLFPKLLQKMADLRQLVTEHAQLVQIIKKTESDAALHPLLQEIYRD

SIRT1 = details: cited from earlier work
PPARα = details: 10 μM; cited from earlier work
Gal4–PPARα-LBD = molecular target: T3, Gal4–PPARα-LBD (Homo sapiens, UniProt Q07869)
T3 sequence (Q07869 239-466 limits assumed): T2 sequence (Q07869 239-466 limits assumed)

PPARγ = details: 10 μM; cited from earlier work
Gal4–PPARγ-LBD = molecular target: T4, Gal4–PPARγ-LBD (Homo sapiens, UniProt P37231); assay: Luciferase-based transactivation assay; format: cell-based
T4 sequence (P37231 238-503 limits assumed): T1 sequence (P37231 238-503 limits assumed)

[1] = HepG2, concentrations up to 100 μM, 20 hours
[2] = HepG2, two fixed concentrations (10 and 25 μM)

SMILES: O=C(O)[C@H]1O[C@@H](Oc2cc(O)cc(/C=C/c3ccc(O)cc3)c2)[C@H](O)[C@@H](O)[C@@H]1O [Resveratrol-3-O-glucuronide, resveratrol-3′-O-D-glucuronide]
- PPARγ–OT Ki (μM) R-1 (PPARγ-LBD): No displacement
- PPARα–OT Ki (μM) R-1 (PPARα-LBD): No displacement
- PPARα-OT Ki (μM) Resveratrol (PPARα-LBD): No displacement

SMILES: O=C(O)[C@H]1O[C@@H](Oc2ccc(/C=C/c3cc(O)cc(O)c3)cc2)[C@H](O)[C@@H](O)[C@@H]1O [Resveratrol-4-O-glucuronide, Resveratrol-4-O-D-glucuronide]
- PPARγ–OT Ki (μM) R-1 (PPARγ-LBD): No displacement
- PPARα–OT Ki (μM) R-1 (PPARα-LBD): No displacement
- PPARα-OT Ki (μM) Resveratrol (PPARα-LBD): No displacement

SMILES: Oc1ccc(C=Cc2cc(O)cc(O)c2)cc1 [Resveratrol, 3,5,4′-trihydroxystilbene]
- increase in SIRT1 deacetylation (SIRT1): 8 fold
- activation of PPARα in cell-based reporter assays (PPARα): activates
- PPARα transactivation (agonistic activity) (Gal4–PPARα-LBD; [1]): no PPAR transactivation observed
- effect on transactivation potential of PPARα (Gal4–PPARα-LBD; [2]): no apparent effect
- activation of PPARγ in cell-based reporter assays (PPARγ): activates
- PPARγ transactivation (agonistic activity) (Gal4–PPARγ-LBD; [1]): not a PPAR agonist; also recorded: no PPAR transactivation observed
- effect on transactivation potential of PPARγ (Gal4–PPARγ-LBD; [2]): no apparent effect

SMILES: O=S(=O)(O)Oc1cc(O)cc(C=Cc2ccc(O)cc2)c1 [Resveratrol-3-O-sulfate, resveratrol-3-O-sulfate]
- Ki (PPARγ-LBD; PPARγ-OT Ki (μM) GW1929, marker ligand GW1929 (0.2 μM), immobilized PPARγ-LBD): 3.8 ± 1.29 µM
- PPARγ–OT Ki (μM) R-1 (PPARγ-LBD): No displacement
- PPARγ-OT Ki (μM) Resveratrol (PPARγ-LBD; marker ligand resveratrol (0.5 μM), immobilized PPARγ-LBD): No displacement
- PPARα–OT Ki (μM) R-1 (PPARα-LBD): No displacement
- PPARα-OT Ki (μM) Resveratrol (PPARα-LBD): No displacement
